Reference: patent publication EP3138565A1, “METHOD FOR TREATING A TUMOUR DISEASE AND METHOD FOR SELECTIVELY INHIBITING TUMOUR CELL GROWTH USING A QUINOXALINE-1,4-DIOXIDE DERIVATIVE” (OOO "A-Laboratory", priority 2014, dated 2015)

How the values were obtained:
[1] = tested on: HCT116; test: MTT test, antiproliferative activity; assay type: cell-based, human; details: for IC50: HCT-116, HCT116 human solid tumor cells, MTT test
Description: (§1) Comparative study of cytotoxicity of 6,7-difluoro-3-phenyl-2-cyanoquinoxaline 1,4-dioxide (compound 7 obtained according to a method described in the Example 1) and the previously known 6,7-nonsubstituted analogue 6 (obtained earlier by a method described by [Hu Y. etal. Molecules 2012, 17, 9683]) was performed in in vitro tests on cells of human solid tumors, as well as normal human embryo lung fibroblasts (HELF) to control selectivity. IC50 values were determined by the MTT test according to a protocol described in the literature [Mossman T.J. Immunol. Methods, 1983, 65, 55]. Table 1. Antiproliferative activity (IC50, µM) of quinoxaline 1,4-dioxides 6 and 7 with respect to human solid tumor cells and non-tumor human embryo lung fibroblasts (HELF)

[2] = tested on: K562 leukemic cells; test: Antiproliferative activity on leukemia cells; assay type: cell-based; details: Homo sapiens
Description: (§2) Comparative study of cytotoxicity of 6,7-difluoro-3-phenyl-2-cyanoquinoxaline 1,4-dioxide (compound of formula 7), which is the subject if the present invention, was performed also on a culture of tumor […] leukemia K562 cells and its resistant subline K562/4 expressing p-glycoprotein. Expression of such ATP-dependent transporters on cell surface is one of the most common mechanisms of the multidrug resistance development in tumors [Shtil A.A., Grinchuk T.M., et. al. Int. J. Oncol., 2000, 17, 387]. Data of these studies, including the IC50 values of reference compounds, the previously described quinoxaline 1,4-dioxide of formula 6, and doxorubicin, as well as the resistance index value (RI is the ratio between the IC50 values of the K562/4 subline and IC50 of the K562 line) are presented in Table 2.

[3] = tested on: normal human embryo lung fibroblasts (HELF); test: MTT test, cytotoxicity on non-tumor cells (selectivity control); assay type: cell-based; details: HELF; non-tumor human embryo lung fibroblasts, MTT test; read-out: IC50, µM HEFL
Description: as §1

[4] = tested on: K562/4; test: Antiproliferative activity on multidrug-resistant subline expressing p-glycoprotein; assay type: cell-based; details: for IC50: Homo sapiens, K562/4 subline with multidrug resistance caused by p-gp expression; for RI, resistance index: RI = IC50(K562/4)/IC50(K562)
Description: as §2

[5] = tested on: MSF7; test: MTT test, antiproliferative activity; assay type: cell-based; details: MSF7 human solid tumor cells
Description: as §1

[6] = MTT test, cytotoxicity on non-tumor cells (selectivity control); assay type: cell-based; details: tumor cells of different genesis vs non-tumor human fibroblasts; read-out: cytotoxicity with respect to tumor cells higher than against the non-tumor human fibroblast cells (selectivity)
Description: as §1

[7] = tested on: animal tumor models; test: Antitumor effect on animal tumor models; assay type: in vivo; details: no data given
[8] = tested on: human tumor cells of various genesis; test: Apoptosis induction in tumor cells under normoxia; assay type: cell-based; details: submicromolar concentrations, all studied types of human tumor cells

SMILES | IC50 [1] | IC50 [2] | IC50 [3] | IC50 [4] | RI, resistance index [4] | IC50 [5] | growth-inhibiting concentrations relative to the closest analogue of formula 6 ([1]; all tested tumor cell lines) | selectivity ratio [6] | activity toward K562/4 cells surpassing analogue of formula 6 ([4]; K562/4, versus closest analogue of formula 6) | activity toward K562/4 cells surpassing doxorubicin ([4]; K562/4, versus reference preparation doxorubicin) | resistance index (RI) lower than doxorubicin ([4]; RI of compound versus RI of doxorubicin) | antitumor effect [7] | apoptosis induction [8]
N#Cc1c(-c2ccccc2)[n+]([O-])c2ccccc2[n+]1[O-] [Compound 6, reference compound] | 8.4 ± 0.8 µM | 5.2 ± 0.78 µM | 25.2 ± 5.1 µM | 33 ± 4 µM | 6.3 | 15.5 ± 0.98 µM |  |  |  |  |  |  | 
N#Cc1c(-c2ccccc2)[n+]([O-])c2cc(F)c(F)cc2[n+]1[O-] [Compound 7, 6,7-difluoro-3-phenyl-2-cyanoquinoxaline 1,4-dioxide] | 0.6 ± 0.03 µM | 0.15 ± 0.02 µM | 44 ± 1.9 µM | 0.3 ± 0.05 µM | 2.0 | 0.1 ± 0.02 µM | two orders of magnitude lower | 200 to 300 | 100 fold | ~50 fold | ~50 fold | reliable antitumor effect | induced apoptosis
COc1cccc2c1C(=O)c1c(O)c3c(c(O)c1C2=O)C[C@@](O)(C(=O)CO)C[C@@H]3O[C@H]1C[C@H](N)[C@H](O)[C@H](C)O1 [Doxorubicin, reference compound] |  | 0.18 ± 0.03 µM |  | 18.4 ± 2.2 µM | 102.2 |  |  |  |  |  |  |  | 
